Measured values published in patent US8604034B2, “Substituted imidazo[1,2-α]pyrrolo[1,2-d]pyrazines for treating respiratory syncytial virus (RSV) infections” (Biota Scientific Management Pty Ltd., priority 2010, dated 2013).
Like-named read-outs stand apart in the source and are kept apart here.

Tested on: RSV A2
Experiment: RSV antiviral cytopathic effect (CPE) assay
Type: cell-based
Settings: human respiratory syncytial virus, HEp-2, 120 h, HEp2 cells infected with RSV A2 (moi ~0.01), 5 days, MTT readout
Protocol: Compounds of the invention were tested for their antiviral activity against respiratory syncytial virus. Cytopathic effect (CPE) assays were performed essentially as described in the literature (see for example Watanabe et al, 1994, J. Virological Methods, 48:257). Serial dilutions of the test compounds were made in 96 well plates. HEp2 cells (1.0×10^4 cells/well) were infected with RSV at a low multiplicity of infection (e.g. RSV A2 at an moi of ˜0.01) and added to plates to assess antiviral activity. Uninfected HEp2 cells were used to assess compound cytotoxicity. Assays were incubated for 5 days at 37° C. in a 5% CO2 atmosphere. The extent of CPE was determined via metabolism of the vital dye 3-(4,5-dimethylthiaxol-2-yl)-2,5-diphenyltetrazolium bromide (MTT). MTT (1 mg/ml) was added to each well and plates incubated for 2 hours incubation at 37° C. Wells were aspirated, iso-propanol (200 μL) was added and absorbance values read at 540/650 nm. Compound concentrations that inhibited CPE by 50% (EC50) and developed cytotoxicity (CC50) were calculated using non-linear regression analysis.
Representative mean EC50 values obtained are also provided. In the inventors' experience, replicate EC50 values usually fall within three standard deviations of the mean.

[1] = read-out: Activity Range (RSV A2 EC50)
[2] = mean EC50, read-out: RSV A2 EC50

Row | EC50 [1] [nM] | EC50 [2] [nM] | Structure (SMILES)
1 | 500 to 10000 | 1300 | O=C(NCCc1ccccc1)N1CCN2C(=O)c3cccn3CC12c1ccc(Cl)cc1 (stereo not drawn) [Compound 48]
2 | < 49 | 7.9 | O=C(c1conc1C(F)(F)F)N1CCN2C(=O)c3cccn3CC12c1ccc(Cl)cc1 (stereo not drawn) [Compound 49]
3 | 500 to 10000 | 1420 | Cc1nocc1C(=O)N1CCN2C(=O)c3cccn3CC12C1CCOCC1 (stereo not drawn) [Compound 50, 1-[(3-methyl-1,2-oxazol-4-yl)carbonyl]-10a-(tetrahydro-2H-pyran-4-yl)-2,3,10,10a-tetrahydro-1H,5H-imidazo[1,2-a]pyrrolo[1,2-d]pyrazin-5-onel]
4 | 500 to 10000 | 700 | COc1ccc(C23Cn4cccc4C(=O)N2CCN3C(=O)c2cnoc2)cc1 (stereo not drawn) [Compound 51]
5 | < 49 | 24 | COc1ccc(C23Cn4cccc4C(=O)N2CCN3C(=O)c2conc2C(F)(F)F)cc1 (stereo not drawn) [Compound 52]
6 | 100 to 499 | 260 | COc1ccc(C23Cn4cccc4C(=O)N2CCN3C(=O)c2c(C)noc2C)cc1 (stereo not drawn) [Compound 53]
7 | 500 to 10000 | 600 | COc1ccc(C23Cn4cccc4C(=O)N2CCN3C(=O)c2ccoc2)cc1 (stereo not drawn) [Compound 54]
8 | 500 to 10000 | 2500 | COc1ccc(C23Cn4cccc4C(=O)N2CCN3C(=O)c2ocnc2C)cc1 (stereo not drawn) [Compound 55]
9 | 100 to 499 | 370 | COc1ccc(C23Cn4cccc4C(=O)N2CCN3C(=O)c2snnc2C)cc1 (stereo not drawn) [Compound 56]
10 | < 49 | 14 | Cc1nocc1C(=O)N1CCN2C(=O)c3cccn3CC12c1ccc2c(c1)CCO2 (stereo not drawn) [Compound 57]
11 | < 49 | 49 | COc1ccc(C23Cn4cccc4C(=O)N2CCN3C(=O)c2conc2C)cn1 (stereo not drawn) [Compound 58]
12 | 100 to 499 | 180 | COc1ccc(C23Cn4cccc4C(=O)N2CCN3C(=O)c2ncoc2C2CC2)cc1 (stereo not drawn) [Compound 59]
13 | 500 to 10000 | 4700 | COc1ccc(C23Cn4cccc4C(=O)N2CCN3C(=O)c2cccn2C)cc1 (stereo not drawn) [Compound 60]
14 | 500 to 10000 | 980 | COc1ccc(C23Cn4cccc4C(=O)N2CCN3C(=O)c2ccnn2C)cc1 (stereo not drawn) [Compound 61]
15 | < 49 | 48 | Cc1nocc1C(=O)OCc1ccc(C23Cn4cccc4C(=O)N2CCN3C(=O)c2conc2C)cc1 (stereo not drawn) [Compound 62, 4-{1-[(3-methyl-1,2-oxazol-4-yl)carbonyl]-5-oxo-2,3-dihydro-1H,5H-imidazo[1,2-a]pyrrolo[1,2-d]pyrazin-10a(10H)-yl}benzyl 3-methyl-1,2-oxazole-4-carboxylate]
16 | < 49 | 21 | Cc1nocc1C(=O)N1CCN2C(=O)c3cc(-c4ccccn4)nn3CC12c1ccc(Cl)cc1 (stereo not drawn) [Compound 63, 10a-(4-chlorophenyl)-1-[(3-methyl-1,2-oxazol-4-yl)carbonyl]-7-(pyridin-2-yl)-2,3,10,10a-tetrahydro-1H,5H-imidazo[1,2-a]pyrazolo[1,5-d]pyrazin-5-one]
17 | 500 to 10000 | 8600 | Cc1nocc1C(=O)N1CCN2C(=O)c3cc(-c4ccccc4)nn3CC12c1ccc(Cl)cc1 (stereo not drawn) [Compound 64]
18 | 50 to 99 | 66 | COc1ccc(C23Cn4cc(F)cc4C(=O)N2CCN3C(=O)c2conc2C)cc1 (stereo not drawn) [Compound 65]
19 | < 49 | 15 | COc1ccc(C23Cn4cc(F)cc4C(=O)N2CCN3C(=O)c2conc2C(F)(F)F)cc1 (stereo not drawn) [Compound 66]
20 | < 49 | 17 | CCc1nocc1C(=O)N1CCN2C(=O)c3cccn3CC12c1ccc(OC)cc1 (stereo not drawn) [Compound 67]
21 | 50 to 99 | 53 | COc1ccc(C23Cn4cccc4C(=O)N2CCN3C(=O)c2conc2C(C)C)cc1 (stereo not drawn) [Compound 68]
22 | 100 to 499 | 160 | Cc1nocc1C(=O)N1CCN2C(=O)c3cccn3CC12c1ccc(O)cc1 (stereo not drawn) [Compound 69]
23 | < 49 | 3.6 | Cc1nocc1C(=O)N1CCN2C(=O)c3cc(-c4ccco4)nn3CC12c1ccc(Cl)cc1 (stereo not drawn) [Compound 70]
24 | > 10000 | 11000 | COc1ccc(C23Cn4cccc4C(=O)N2CCN3C(=O)c2cccnc2)cc1 (stereo not drawn) [Compound 71]

Row | EC50 [1] [nM] | EC50 [2] [nM] | Structure (SMILES)
25 | < 49 | 48 | Cc1nocc1C(=O)N1CCN2C(=O)c3ccnn3CC12c1ccc(Cl)cc1 (stereo not drawn) [Compound 72]
26 | 100 to 499 | 250 | Cc1nocc1C(=O)N1CCN2C(=O)c3cccn3CC12c1ccsc1 (stereo not drawn) [Compound 73]
27 | 100 to 499 | 220 | Cc1nocc1C(=O)N1CCN2C(=O)c3cccn3CC12c1cccs1 (stereo not drawn) [Compound 74]
28 | > 10000 |  | COc1ccc(C23Cn4cc(-c5nnn[nH]5)cc4C(=O)N2CCN3C(=O)c2conc2C)cc1 (stereo not drawn) [Compound 75, 10a-(4-methoxyphenyl)-1-[(3-methyl-1,2-oxazol-4-yl)carbonyl]-7-(1H-tetrazol-5-yl)-2,3,10,10a-tetrahydro-1H,5H-imidazo[1,2-a]pyrrolo[1,2-d]pyrazin-5-one]
29 | 50 to 99 | 67 | COCc1ccc(C23Cn4cccc4C(=O)N2CCN3C(=O)c2conc2C)cc1 (stereo not drawn) [Compound 76]
30 | 500 to 10000 | 7300 | Cc1ccc([C@@]23Cn4cccc4C(=O)N2CCN3C(=O)c2conc2C)cn1 [Compound 77A, (10aS)-1-[(3-methyl-1,2-oxazol-4-yl)carbonyl]-10a-(6-methylpyridin-3-yl)-2,3,10,10a-tetrahydro-1H,5H-imidazo[1,2-a]pyrrolo[1,2-d]pyrazin-5-one]
31 | < 49 | 19 | Cc1ccc([C@]23Cn4cccc4C(=O)N2CCN3C(=O)c2conc2C)cn1 [Compound 77B, (10aR)-1-[(3-methyl-1,2-oxazol-4-yl)carbonyl]-10a-(6-methylpyridin-3-yl)-2,3,10,10a-tetrahydro-1H,5H-imidazo[1,2-a]pyrrolo[1,2-d]pyrazin-5-one]
32 | 50 to 99 | 56 | Cc1ccc(C23Cn4cccc4C(=O)N2CCN3C(=O)c2conc2C)cn1 (stereo not drawn) [Compound 77]
33 | 500 to 10000 | 5800 | Cc1nocc1C(=O)N1CCN2C(=O)c3cccn3CC12c1ccc[n+]([O-])c1 (stereo not drawn) [Compound 78, 1-[(3-methyl-1,2-oxazol-4-yl)carbonyl]-10a-(1-oxidopyridin-3-yl)-2,3,10,10a-tetrahydro-1H,5H-imidazo[1,2-a]pyrrolo[1,2-d]pyrazin-5-one]
34 | < 49 | 3.1 | Cc1nocc1C(=O)N1CCN2C(=O)c3ccc(Cl)n3CC12c1ccc(F)cc1 (stereo not drawn) [Compound 80]
35 | 50 to 99 | 67 | Cc1nocc1C(=O)N1CCN2C(=O)c3ccc(Cl)n3CC12C1CCOCC1 (stereo not drawn) [Compound 81, 8-chloro-1-[(3-methyl-1,2-oxazol-4-yl)carbonyl]-10a-(tetrahydro-2H-pyran-4-yl)-2,3,10,10a-tetrahydro-1H,5H-imidazo[1,2-a]pyrrolo[1,2-d]pyrazin-5-one]
36 | < 49 | 48 | COc1ccc(C23Cn4cc(-c5cnn(C)c5)cc4C(=O)N2CCN3C(=O)c2conc2C)cc1 (stereo not drawn) [Compound 82]
37 | 50 to 99 | 120 | COc1ccc(C23Cn4cc(-c5cccnc5)cc4C(=O)N2CCN3C(=O)c2conc2C)cc1 (stereo not drawn) [Compound 83]
38 | < 49 | 18 | COc1ccc(C23Cn4cc(-c5ccncc5)cc4C(=O)N2CCN3C(=O)c2conc2C)cc1 (stereo not drawn) [Compound 84]
39 | > 10000 |  | O=C1c2cc(Br)cn2CC2(c3ccc(F)cc3)NCCN12 (stereo not drawn) [Compound 85]
40 | > 10000 |  | Cc1ccc(C23Cn4cc(Br)cc4C(=O)N2CCN3)cc1 (stereo not drawn) [Compound 86]
41 | 50 to 99 | 500 | COc1ccc(C23Cn4cc(-c5ccnn5C)cc4C(=O)N2CCN3C(=O)c2conc2C)cc1 (stereo not drawn) [Compound 87]
42 | 50 to 99 | 65 | COc1ccc(C23Cn4cc(-c5cnn(C(C)C)c5)cc4C(=O)N2CCN3C(=O)c2conc2C)cc1 (stereo not drawn) [Compound 88]
43 | 500 to 10000 | 1600 | COc1ccc(C23Cn4cc(C#N)cc4C(=O)N2CCN3C(=O)c2conc2C)cc1 (stereo not drawn) [Compound 89, 10a-(4-methoxyphenyl)-1-[(3-methyl-1,2-oxazol-4-yl)carbonyl]-5-oxo-2,3,10,10a-tetrahydro-1H,5H-imidazo[1,2-a]pyrrolo[1,2-d]pyrazine-7-carbonitrile]
44 | 500 to 10000 | 1300 | COc1ccc(C23Cn4cc(-c5cncnc5)cc4C(=O)N2CCN3C(=O)c2conc2C)cc1 (stereo not drawn) [Compound 90]
45 | 100 to 499 | 140 | COc1ccc(C23Cn4cc(-c5cn(C)nc5C)cc4C(=O)N2CCN3C(=O)c2conc2C)cc1 (stereo not drawn) [Compound 91]
46 | > 10000 |  | COc1ccc(C23Cn4cc(-c5cnccc5C)cc4C(=O)N2CCN3C(=O)c2conc2C)cc1 (stereo not drawn) [Compound 92]
47 | < 49 | 8.2 | Cc1ccc(C23Cn4cc(-c5ccccn5)cc4C(=O)N2CCN3C(=O)c2conc2C)cc1 (stereo not drawn) [Compound 93, 1-[(3-methyl-1,2-oxazol-4-yl)carbonyl]-10a-(4-methylphenyl)-7-(pyridin-2-yl)-2,3,10,10a-tetrahydro-1H,5H-imidazo[1,2-a]pyrrolo[1,2-d]pyrazin-5-one]
